Experimental data taken from ChEMBL document CHEMBL6127032, “Progress of ATM inhibitors: Opportunities and challenges” (Eur J Med Chem, 2024).
Values after ≈ are worked out from the molar mass of the structure shown. One block for each compound: values may come before it.

Key:
[1] = Oral bioavailability in human; assay type: ADME, organism-based; conditions: in vivo
[2] = target: Serine/threonine-protein kinase mTOR (Homo sapiens, UniProt P42345); experiment: Inhibition of mTOR (unknown origin)
[3] = target: T1, Serine-protein kinase ATM (Homo sapiens, UniProt Q13315); experiment: Inhibition of ATM in human HeLa cells; assay type: cell-based
T1 sequence (Q13315 whole entry): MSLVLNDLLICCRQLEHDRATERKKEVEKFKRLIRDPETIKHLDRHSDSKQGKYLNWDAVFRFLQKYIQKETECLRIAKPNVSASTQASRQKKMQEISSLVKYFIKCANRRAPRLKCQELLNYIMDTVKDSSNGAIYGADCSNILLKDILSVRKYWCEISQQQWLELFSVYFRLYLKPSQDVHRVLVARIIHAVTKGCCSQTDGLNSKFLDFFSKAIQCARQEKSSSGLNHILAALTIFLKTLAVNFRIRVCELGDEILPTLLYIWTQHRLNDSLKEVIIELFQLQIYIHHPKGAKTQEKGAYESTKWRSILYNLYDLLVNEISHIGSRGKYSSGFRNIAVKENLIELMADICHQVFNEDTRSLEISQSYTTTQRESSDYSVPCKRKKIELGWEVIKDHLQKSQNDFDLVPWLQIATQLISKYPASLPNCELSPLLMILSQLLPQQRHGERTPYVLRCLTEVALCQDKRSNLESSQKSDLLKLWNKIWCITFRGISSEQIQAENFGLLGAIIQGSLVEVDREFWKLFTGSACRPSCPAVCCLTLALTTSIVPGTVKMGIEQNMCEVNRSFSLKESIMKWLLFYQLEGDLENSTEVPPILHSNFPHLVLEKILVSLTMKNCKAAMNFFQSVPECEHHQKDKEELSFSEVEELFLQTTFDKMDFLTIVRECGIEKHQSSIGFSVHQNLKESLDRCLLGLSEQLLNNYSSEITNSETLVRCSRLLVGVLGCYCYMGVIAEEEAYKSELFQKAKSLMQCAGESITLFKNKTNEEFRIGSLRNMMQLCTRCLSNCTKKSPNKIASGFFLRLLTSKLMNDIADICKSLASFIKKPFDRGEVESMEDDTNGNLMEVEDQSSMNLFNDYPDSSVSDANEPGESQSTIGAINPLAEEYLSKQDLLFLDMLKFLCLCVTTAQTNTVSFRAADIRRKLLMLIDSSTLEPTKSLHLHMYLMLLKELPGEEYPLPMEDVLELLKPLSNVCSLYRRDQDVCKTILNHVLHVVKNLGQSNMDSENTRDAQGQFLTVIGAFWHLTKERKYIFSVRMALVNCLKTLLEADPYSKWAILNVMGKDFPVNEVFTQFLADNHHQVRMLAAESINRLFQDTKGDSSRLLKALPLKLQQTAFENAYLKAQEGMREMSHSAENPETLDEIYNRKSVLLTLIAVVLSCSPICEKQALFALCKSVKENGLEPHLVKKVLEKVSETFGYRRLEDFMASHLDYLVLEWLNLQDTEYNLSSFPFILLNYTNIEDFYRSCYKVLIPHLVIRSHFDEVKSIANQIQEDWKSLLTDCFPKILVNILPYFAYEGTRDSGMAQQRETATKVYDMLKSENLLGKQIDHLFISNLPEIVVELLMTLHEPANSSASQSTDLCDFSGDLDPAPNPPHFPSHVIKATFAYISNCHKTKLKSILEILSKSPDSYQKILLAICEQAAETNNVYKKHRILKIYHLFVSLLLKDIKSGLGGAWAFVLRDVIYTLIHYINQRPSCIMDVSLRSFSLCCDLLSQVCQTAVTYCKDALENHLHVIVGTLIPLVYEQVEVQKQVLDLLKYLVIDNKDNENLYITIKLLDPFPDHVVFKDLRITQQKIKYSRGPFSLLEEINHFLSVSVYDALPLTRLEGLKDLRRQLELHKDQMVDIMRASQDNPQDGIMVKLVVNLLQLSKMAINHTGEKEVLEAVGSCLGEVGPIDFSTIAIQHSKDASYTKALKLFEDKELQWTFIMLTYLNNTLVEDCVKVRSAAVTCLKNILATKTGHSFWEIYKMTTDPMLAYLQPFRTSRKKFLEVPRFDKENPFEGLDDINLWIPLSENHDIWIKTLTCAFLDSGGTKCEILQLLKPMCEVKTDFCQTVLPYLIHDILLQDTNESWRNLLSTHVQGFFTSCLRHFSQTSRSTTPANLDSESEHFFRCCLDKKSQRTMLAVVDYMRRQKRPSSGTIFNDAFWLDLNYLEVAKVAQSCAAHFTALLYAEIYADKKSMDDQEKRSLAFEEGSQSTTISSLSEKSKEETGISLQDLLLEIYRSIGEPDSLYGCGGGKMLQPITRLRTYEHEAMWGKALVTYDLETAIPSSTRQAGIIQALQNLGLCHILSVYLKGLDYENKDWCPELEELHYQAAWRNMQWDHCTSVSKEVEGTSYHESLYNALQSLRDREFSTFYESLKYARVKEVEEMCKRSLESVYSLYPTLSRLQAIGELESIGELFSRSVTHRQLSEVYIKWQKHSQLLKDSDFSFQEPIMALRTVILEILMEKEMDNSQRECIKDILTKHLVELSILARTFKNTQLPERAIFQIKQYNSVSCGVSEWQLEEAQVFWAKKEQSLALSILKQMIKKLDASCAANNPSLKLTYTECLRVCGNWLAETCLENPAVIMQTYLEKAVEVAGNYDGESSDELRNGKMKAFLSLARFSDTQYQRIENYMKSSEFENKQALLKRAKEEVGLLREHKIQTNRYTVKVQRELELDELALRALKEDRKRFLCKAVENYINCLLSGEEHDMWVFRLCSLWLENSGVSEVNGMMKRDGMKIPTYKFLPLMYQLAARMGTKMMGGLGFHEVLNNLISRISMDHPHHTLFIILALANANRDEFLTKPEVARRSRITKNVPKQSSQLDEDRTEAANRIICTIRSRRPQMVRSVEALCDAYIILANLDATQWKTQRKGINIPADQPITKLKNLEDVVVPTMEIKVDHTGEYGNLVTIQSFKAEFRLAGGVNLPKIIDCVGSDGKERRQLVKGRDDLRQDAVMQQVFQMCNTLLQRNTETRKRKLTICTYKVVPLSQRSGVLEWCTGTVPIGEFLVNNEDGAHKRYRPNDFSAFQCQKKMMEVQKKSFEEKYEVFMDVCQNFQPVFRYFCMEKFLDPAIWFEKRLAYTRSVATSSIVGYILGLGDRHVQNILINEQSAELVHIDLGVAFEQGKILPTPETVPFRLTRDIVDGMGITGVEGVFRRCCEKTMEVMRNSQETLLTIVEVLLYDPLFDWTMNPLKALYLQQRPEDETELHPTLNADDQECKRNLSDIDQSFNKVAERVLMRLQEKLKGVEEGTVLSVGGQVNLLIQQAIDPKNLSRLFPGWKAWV

[4] = target: Serine/threonine-protein kinase ATR (Homo sapiens, UniProt Q13535); experiment: Inhibition of ATR (unknown origin)
[5] = Inhibition of PI4K (unknown origin); parameters: species or system Homo sapiens
[6] = Inhibition of PI3K (unknown origin); parameters: species or system Homo sapiens
[7] = Inhibition of DNA-PK (unknown origin); parameters: species or system Homo sapiens
U2OS = experiment: cells; conditions: Homo sapiens
[8] = target: T1, Serine-protein kinase ATM; experiment: Inhibition of ATM (unknown origin)
[9] = Solubility of compound in PBS buffer; assay type: physicochemical

SMILES: CN1CCN(CCC(=O)Nc2ccc3c(c2)Sc2cccc(-c4cc(=O)cc(N5CCOCC5)o4)c2S3)CC1
IC50 [2]: > 10000 nM
IC50 [3]: 13 nM
IC50 [4]: > 100000 nM
IC50 [5]: > 100000 nM
IC50 [6]: 10000 nM
IC50 [7]: 9100 nM

SMILES: COc1cc2ncc3c(c2cc1-c1cn(C)nc1C)n(-c1c(F)cncc1OC)c(=O)n3C [LARTESERTIB]
solubility [9]: 93 µg/mL (≈ 207 µM)
IC50 [7]: 600 nM

The next lines start with the values.

bioavailability [1]: 37%
SMILES: C[C@@H]1CN(CC(=O)Nc2ccc3c(c2)Cc2cccc(-c4cc(=O)cc(N5CCOCC5)o4)c2S3)C[C@H](C)O1

IC50 (U2OS): 230 nM
SMILES: O=c1cc(N2CCOCC2)cc(N2CCCCC[C@@H]2Cc2ccccc2)[nH]1

IC50 [8]: 7.8 nM
SMILES: CC(C)n1c(=O)n(C)c2cnc3cc(F)c(-c4ccc(OCCCN5CCCCC5)nc4)cc3c21 [AZD-1390]
